{
  "source": "PubChem BioAssay AID743462",
  "about": "(Vanderbilt Specialized Chemistry Center, 2014)",
  "biological_target": "Metabotropic glutamate receptor 8 (Rattus norvegicus) (UniProt P70579)",
  "sequence (P70579 whole entry, looked up)": "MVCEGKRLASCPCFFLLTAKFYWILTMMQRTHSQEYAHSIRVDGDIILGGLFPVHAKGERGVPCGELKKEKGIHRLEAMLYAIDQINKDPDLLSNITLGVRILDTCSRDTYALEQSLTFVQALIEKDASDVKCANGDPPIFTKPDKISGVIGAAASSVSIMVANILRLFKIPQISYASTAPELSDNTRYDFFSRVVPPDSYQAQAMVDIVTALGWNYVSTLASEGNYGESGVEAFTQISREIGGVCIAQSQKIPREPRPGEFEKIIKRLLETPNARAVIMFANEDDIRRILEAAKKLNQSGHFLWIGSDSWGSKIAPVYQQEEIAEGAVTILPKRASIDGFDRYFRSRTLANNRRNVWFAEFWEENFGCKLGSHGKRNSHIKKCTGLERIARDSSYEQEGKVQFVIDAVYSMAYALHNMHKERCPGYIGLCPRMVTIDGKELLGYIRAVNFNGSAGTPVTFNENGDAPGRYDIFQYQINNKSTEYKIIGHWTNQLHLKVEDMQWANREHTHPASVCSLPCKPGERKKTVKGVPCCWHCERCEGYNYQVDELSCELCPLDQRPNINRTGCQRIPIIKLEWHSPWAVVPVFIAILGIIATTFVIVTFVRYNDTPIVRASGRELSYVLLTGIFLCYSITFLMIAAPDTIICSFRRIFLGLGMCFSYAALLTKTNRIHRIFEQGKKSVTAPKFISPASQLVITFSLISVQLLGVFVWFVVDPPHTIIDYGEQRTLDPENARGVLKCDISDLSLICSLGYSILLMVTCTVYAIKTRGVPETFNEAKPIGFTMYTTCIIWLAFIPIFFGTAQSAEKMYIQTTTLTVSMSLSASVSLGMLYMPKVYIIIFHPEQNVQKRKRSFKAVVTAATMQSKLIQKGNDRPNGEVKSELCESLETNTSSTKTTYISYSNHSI",
  "assay": "potentiation of glutamate response at mGlu8 – cell-based, rat receptor, GIRK thallium flux, confirmation (AID 743462)",
  "data": [
    {"smiles": "COC(=O)c1ccc(-n2c(C)cc(C(=O)CSc3ccc(NC(C)=O)cc3)c2C)cc1", "values": [
      {"measurement": "EC50", "result": 1800, "unit": "nM"}
    ]}
  ]
}
